Measurements: ChEMBL document CHEMBL3616395, “Discovery of 4-arylamido 3-methyl isoxazole derivatives as novel FMS kinase inhibitors” (Eur J Med Chem, 2015)
The source made the active and inactive calls. No cut-off for these calls is given here.

Tests used:
[1] = target: Tyrosine-protein kinase ABL1 (Homo sapiens) (UniProt P00519); assay: Inhibition of ABL1 (unknown origin) at 10 uM after 40 mins by scintillation counting analysis
[2] = target: Cyclin-dependent kinase 2/cyclin E (Homo sapiens) (UniProt P24864+P24941+O96020); assay: Inhibition of CDK2/cyclin E (unknown origin) at 10 uM after 40 mins by scintillation counting analysis; assay type: protein-complex assay
[3] = target: Insulin-like growth factor 1 receptor (Homo sapiens) (UniProt P08069); assay: Inhibition of IGF1R (unknown origin) at 10 uM after 40 mins by scintillation counting analysis
Sequence of Insulin-like growth factor 1 receptor (Homo sapiens) (P08069 31-736 limits assumed): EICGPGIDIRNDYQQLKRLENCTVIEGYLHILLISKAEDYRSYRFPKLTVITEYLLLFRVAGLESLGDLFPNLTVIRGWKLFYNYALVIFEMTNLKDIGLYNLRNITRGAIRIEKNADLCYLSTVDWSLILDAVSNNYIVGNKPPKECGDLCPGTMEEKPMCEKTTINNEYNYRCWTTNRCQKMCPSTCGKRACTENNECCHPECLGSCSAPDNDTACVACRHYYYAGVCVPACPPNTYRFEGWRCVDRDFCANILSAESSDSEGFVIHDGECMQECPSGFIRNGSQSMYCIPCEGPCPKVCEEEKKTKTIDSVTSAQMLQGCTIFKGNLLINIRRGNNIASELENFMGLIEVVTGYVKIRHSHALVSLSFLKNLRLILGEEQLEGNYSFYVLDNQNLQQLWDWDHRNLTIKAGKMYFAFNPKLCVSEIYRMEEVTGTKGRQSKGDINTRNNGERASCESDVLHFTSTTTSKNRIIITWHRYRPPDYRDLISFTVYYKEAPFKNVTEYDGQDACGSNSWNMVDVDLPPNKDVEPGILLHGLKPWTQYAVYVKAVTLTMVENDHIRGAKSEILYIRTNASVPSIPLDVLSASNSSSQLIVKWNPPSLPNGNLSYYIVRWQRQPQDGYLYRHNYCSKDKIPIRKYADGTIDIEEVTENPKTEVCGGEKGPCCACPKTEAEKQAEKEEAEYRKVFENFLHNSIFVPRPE
Sequence of Insulin-like growth factor 1 receptor (Homo sapiens) (P08069 741-1367 limits assumed): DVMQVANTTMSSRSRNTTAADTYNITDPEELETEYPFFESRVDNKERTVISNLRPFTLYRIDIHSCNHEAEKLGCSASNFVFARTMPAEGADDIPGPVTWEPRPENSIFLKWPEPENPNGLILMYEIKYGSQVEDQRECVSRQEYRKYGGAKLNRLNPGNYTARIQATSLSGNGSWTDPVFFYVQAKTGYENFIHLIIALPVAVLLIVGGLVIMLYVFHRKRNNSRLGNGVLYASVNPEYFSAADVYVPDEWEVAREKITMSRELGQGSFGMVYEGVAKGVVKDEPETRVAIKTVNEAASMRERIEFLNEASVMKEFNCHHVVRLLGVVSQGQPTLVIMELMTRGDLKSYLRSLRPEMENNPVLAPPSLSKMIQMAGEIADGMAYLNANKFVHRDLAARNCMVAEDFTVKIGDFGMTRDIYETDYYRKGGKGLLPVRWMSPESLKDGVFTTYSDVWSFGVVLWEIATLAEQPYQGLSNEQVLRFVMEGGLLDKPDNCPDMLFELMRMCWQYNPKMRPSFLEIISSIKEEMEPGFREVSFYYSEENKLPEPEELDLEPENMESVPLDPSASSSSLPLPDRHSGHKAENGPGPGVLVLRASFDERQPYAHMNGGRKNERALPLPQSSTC

[4] = target: Fibroblast growth factor receptor 2 (Homo sapiens) (UniProt P21802); assay: Inhibition of FGFR2 (unknown origin) at 10 uM after 40 mins by scintillation counting analysis
[5] = target: Mast/stem cell growth factor receptor Kit (Homo sapiens) (UniProt P10721); assay: Inhibition of c-Kit (unknown origin) at 10 uM after 40 mins by scintillation counting analysis
[6] = target: RAC-alpha serine/threonine-protein kinase (Homo sapiens) (UniProt P31749); assay: Inhibition of AKT1 (unknown origin) at 10 uM after 40 mins by scintillation counting analysis
Sequence of RAC-alpha serine/threonine-protein kinase (Homo sapiens) (P31749 whole entry): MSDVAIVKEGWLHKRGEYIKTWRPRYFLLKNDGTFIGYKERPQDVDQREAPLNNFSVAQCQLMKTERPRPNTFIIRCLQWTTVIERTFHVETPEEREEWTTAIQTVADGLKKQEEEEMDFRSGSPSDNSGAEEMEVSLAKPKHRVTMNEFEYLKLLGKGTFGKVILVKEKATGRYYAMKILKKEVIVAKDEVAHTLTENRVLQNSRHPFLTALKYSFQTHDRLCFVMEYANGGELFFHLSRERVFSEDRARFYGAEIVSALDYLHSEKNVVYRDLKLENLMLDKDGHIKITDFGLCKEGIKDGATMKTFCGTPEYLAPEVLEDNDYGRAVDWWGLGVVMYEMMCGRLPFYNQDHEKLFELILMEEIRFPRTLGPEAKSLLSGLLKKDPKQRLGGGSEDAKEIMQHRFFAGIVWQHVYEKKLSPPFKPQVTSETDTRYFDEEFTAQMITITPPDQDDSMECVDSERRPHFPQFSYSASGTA

[7] = target: Macrophage colony-stimulating factor 1 receptor (Homo sapiens, UniProt P07333); assay: Inhibition of FMS (unknown origin) at 10 uM after 40 mins by scintillation counting analysis
Sequence of Macrophage colony-stimulating factor 1 receptor (P07333 whole entry): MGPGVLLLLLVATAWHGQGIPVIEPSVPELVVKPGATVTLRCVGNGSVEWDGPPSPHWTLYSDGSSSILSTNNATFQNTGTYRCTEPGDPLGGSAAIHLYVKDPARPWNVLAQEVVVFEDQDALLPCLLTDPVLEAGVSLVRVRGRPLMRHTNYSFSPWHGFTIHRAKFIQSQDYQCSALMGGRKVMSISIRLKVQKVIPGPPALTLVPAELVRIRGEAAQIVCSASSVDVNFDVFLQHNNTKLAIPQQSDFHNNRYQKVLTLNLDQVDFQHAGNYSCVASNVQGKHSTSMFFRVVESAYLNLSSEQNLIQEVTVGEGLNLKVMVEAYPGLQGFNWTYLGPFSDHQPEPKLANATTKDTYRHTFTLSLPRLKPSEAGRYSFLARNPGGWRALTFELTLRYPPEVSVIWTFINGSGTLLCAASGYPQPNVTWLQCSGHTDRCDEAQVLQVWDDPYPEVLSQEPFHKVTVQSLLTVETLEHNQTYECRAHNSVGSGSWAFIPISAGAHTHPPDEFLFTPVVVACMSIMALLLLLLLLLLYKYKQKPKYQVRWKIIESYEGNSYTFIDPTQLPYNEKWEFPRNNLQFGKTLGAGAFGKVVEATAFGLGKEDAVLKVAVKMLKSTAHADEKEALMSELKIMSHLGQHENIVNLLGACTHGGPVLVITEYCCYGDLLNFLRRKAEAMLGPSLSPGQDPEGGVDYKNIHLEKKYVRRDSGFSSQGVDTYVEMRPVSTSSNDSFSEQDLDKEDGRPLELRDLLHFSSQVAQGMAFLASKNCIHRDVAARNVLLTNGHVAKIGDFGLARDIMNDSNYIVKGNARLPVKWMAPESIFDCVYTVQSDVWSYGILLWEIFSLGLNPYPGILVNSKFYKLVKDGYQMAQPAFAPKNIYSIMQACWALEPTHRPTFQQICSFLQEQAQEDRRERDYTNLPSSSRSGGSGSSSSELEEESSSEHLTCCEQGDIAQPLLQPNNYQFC

[8] = target: ALK tyrosine kinase receptor (Homo sapiens) (UniProt Q9UM73); assay: Inhibition of ALK (unknown origin) at 10 uM after 40 mins by scintillation counting analysis
Sequence of ALK tyrosine kinase receptor (Homo sapiens) (Q9UM73 19-1620 limits assumed): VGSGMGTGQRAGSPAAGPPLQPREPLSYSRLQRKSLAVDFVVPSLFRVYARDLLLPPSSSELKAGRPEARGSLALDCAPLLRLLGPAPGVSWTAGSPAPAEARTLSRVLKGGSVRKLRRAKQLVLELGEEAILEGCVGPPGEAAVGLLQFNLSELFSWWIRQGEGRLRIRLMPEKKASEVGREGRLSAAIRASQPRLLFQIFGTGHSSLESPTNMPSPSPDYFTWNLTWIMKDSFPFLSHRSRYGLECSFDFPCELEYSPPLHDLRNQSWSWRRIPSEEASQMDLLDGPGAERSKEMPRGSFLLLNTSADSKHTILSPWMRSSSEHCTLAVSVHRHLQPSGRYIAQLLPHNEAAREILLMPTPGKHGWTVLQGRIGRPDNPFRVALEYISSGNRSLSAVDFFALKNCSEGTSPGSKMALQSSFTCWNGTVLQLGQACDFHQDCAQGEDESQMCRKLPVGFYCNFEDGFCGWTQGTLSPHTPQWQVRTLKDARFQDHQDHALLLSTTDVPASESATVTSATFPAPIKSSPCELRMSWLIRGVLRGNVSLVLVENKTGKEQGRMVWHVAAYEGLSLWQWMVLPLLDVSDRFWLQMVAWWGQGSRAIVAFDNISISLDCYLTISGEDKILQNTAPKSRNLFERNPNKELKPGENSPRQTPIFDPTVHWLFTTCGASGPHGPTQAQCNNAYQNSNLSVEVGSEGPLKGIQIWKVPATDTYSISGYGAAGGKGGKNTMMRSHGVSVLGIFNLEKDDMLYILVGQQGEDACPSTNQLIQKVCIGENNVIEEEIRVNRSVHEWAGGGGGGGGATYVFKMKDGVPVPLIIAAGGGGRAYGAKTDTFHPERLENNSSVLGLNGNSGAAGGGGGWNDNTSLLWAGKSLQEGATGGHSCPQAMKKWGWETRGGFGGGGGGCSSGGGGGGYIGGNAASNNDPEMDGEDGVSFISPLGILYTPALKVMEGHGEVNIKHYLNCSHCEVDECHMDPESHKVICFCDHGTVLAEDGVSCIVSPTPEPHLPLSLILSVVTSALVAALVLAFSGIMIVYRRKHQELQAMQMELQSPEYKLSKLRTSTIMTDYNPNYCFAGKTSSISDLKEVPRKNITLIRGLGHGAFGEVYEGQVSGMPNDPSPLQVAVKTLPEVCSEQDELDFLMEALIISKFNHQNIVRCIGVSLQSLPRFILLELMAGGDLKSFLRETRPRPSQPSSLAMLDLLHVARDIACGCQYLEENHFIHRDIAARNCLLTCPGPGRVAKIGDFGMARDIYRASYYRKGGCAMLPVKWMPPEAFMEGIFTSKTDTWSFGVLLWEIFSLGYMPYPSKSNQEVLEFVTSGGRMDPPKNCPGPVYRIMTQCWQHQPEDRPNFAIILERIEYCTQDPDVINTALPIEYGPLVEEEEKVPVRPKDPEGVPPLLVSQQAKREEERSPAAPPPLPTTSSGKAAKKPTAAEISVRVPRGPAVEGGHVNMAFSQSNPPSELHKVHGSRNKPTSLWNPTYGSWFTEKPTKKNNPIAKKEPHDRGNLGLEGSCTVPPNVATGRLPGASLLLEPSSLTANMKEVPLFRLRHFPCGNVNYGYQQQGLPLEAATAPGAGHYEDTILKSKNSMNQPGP

[9] = target: Tyrosine-protein kinase Lck (Homo sapiens) (UniProt P06239); assay: Inhibition of LCK (unknown origin) at 10 uM after 40 mins by scintillation counting analysis
Sequence of Tyrosine-protein kinase Lck (Homo sapiens) (P06239 2-509 limits assumed): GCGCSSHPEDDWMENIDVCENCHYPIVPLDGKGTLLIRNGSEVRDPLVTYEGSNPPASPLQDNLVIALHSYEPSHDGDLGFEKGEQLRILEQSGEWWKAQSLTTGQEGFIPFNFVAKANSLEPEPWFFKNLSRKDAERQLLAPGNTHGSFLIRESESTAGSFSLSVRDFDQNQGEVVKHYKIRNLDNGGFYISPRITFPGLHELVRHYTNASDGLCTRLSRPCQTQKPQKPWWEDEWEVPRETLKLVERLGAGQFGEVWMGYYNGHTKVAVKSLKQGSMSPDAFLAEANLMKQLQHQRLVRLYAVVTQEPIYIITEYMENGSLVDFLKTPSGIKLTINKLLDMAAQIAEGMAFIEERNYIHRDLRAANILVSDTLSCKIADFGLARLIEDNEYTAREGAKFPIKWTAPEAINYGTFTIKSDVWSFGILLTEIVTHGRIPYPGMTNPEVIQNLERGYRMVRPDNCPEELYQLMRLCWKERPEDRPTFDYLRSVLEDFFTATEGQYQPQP

[10] = target: Vascular endothelial growth factor receptor 3 (Homo sapiens) (UniProt P35916); assay: Inhibition of FLT4 (unknown origin) at 10 uM after 40 mins by scintillation counting analysis

inhibition [1]: inactive | inhibition [2]: inactive | inhibition [3]: inactive | inhibition [4]: inactive | inhibition [5]: inactive | inhibition [6]: inactive | inhibition [7]: inactive | inhibition [8]: inactive | inhibition [9]: inactive | inhibition [10]: inactive
Compound: Cc1ccccc1C(=O)Nc1cnoc1C
